From ChEMBL document CHEMBL5120938, “Development of BET Inhibitors as Potential Treatments for Cancer: Optimization of Pharmacokinetic Properties” (ACS Med Chem Lett, 2022)

What was measured:
[1] = target: Bromodomain-containing protein 4 (Homo sapiens, UniProt O60885); test: Inhibition of N-terminal His6-tagged recombinant human BRD4 (44 to 168 residues) expressed in Escherichia coli BL21 (DE3) incubated for 60 mins by TR-FRET assay
[2] = Inhibition of c-MYC expression in human JJN-3R cells measured after 4 hrs; assay type: functional, cell-based
[3] = Antiproliferative activity against human JJN-3R cells assessed as inhibition of cell proliferation measured after 72 hrs by MTS assay; assay type: functional, cell-based
[4] = Metabolic stability in alamethicin treated human liver microsomes assessed as half life pretreated for 5 mins followed by NADPH addition and measured up to 45 mins by LC-MS/MS analysis; assay type: ADME, Microsome; details: time < 50 min
[5] = Metabolic stability in alamethicin treated Sprague-Dawley rat liver microsomes assessed as half life pretreated for 5 mins followed by NADPH addition and measured up to 45 mins by LC-MS/MS analysis; assay type: ADME, Microsome; details: time < 50 min
[6] = Metabolic stability in alamethicin treated CD-1 mouse liver microsomes assessed as half life pretreated for 5 mins followed by NADPH addition and measured up to 45 mins by LC-MS/MS analysis; assay type: ADME, Microsome; details: time < 50 min
[7] = Metabolic stability in alamethicin treated Beagle dog liver microsomes assessed as half life pretreated for 5 mins followed by NADPH addition and measured up to 45 mins by LC-MS/MS analysis; assay type: ADME, Canis lupus familiaris, Microsome; details: time < 50 min
[8] = Metabolic stability in alamethicin treated cynomologus monkey liver microsomes assessed as half life pretreated for 5 mins followed by NADPH addition and measured up to 45 mins by LC-MS/MS analysis; assay type: ADME, Macaca fascicularis, Microsome; details: cynomolgus monkey, time < 50 min
[9] = Metabolic stability in alamethicin treated human liver microsomes assessed as half life pretreated for 5 mins followed by UDPGA addition and measured up to 45 mins by LC-MS/MS analysis; assay type: ADME, Microsome; details: time < 50 min
[10] = Metabolic stability in alamethicin treated Sprague-Dawley rat liver microsomes assessed as half life pretreated for 5 mins followed by UDPGA addition and measured up to 45 mins by LC-MS/MS analysis; assay type: ADME, Microsome; details: time < 50 min
[11] = Metabolic stability in alamethicin treated CD-1 mouse liver microsomes assessed as half life pretreated for 5 mins followed by UDPGA addition and measured up to 45 mins by LC-MS/MS analysis; assay type: ADME, Microsome; details: time < 50 min
[12] = Metabolic stability in alamethicin treated Beagle dog liver microsomes assessed as half life pretreated for 5 mins followed by UDPGA addition and measured up to 45 mins by LC-MS/MS analysis; assay type: ADME, Canis lupus familiaris, Microsome; details: Beagle, liver microsomes, time < 50 min
[13] = Metabolic stability in alamethicin treated cynomologus monkey liver microsomes assessed as half life pretreated for 5 mins followed by UDPGA addition and measured up to 45 mins by LC-MS/MS analysis; assay type: ADME, Macaca fascicularis, Microsome; details: cynomolgus monkey, time < 50 min
[14] = Efflux ratio of apparent permeability across […] in human Caco-2 cells after 2 hrs by liquid scintillation counting analysis; assay type: ADME, cell-based; details: caco-2, 2 h

SMILES | IC50 [1] [nM] | IC50 [2] [nM] | half-life [4] [min] | half-life [5] [min] | half-life [6] [min] | half-life [7] [min] | half-life [8] [min] | half-life [9] [min] | half-life [10] [min] | half-life [11] [min] | half-life [12] [min] | half-life [13] [min] | Ratio [14] | IC50 [3] [nM]
Cc1nnn(C)c1-c1cnc2c3ccc(C(C)(O)C(F)(F)F)c(F)c3n([C@H](c3ccccc3)C3CCOCC3)c2c1 (stereo not given in full) | 3 | 1.5 | 40 | 49 | 58 | 42 | 49 | 120 | 51 | 120 | 120 | 120 | 1.1 | 9
[2H]C([2H])([2H])c1nnn(C)c1-c1cnc2c3ccc(S(C)(=O)=O)cc3n([C@H](c3ccccc3)C3CCOCC3)c2c1 | 1.7 | 2 | 75 | 47 | 22 | 34 | 40 |  |  |  |  |  | 4.5 | 13
[2H]C([2H])([2H])c1nnn(C)c1-c1cnc2c3c(F)cc(C(C)(C)O)cc3n([C@H](c3ccccc3)C3CCOCC3)c2c1 | 8 | 4.5 | 63 | 62 | 48 | 40 | 32 | 120 | 120 | 120 | 120 | 120 | 9.7 | 10
COC(C)(C)c1ccc2c3ncc(-c4c(C)nnn4C)cc3n([C@H](c3ccccc3)C3CCOCC3)c2c1 | 1.4 | 3 | 3 | 18 | 7 |  |  |  |  |  |  |  |  | 7
[2H]C([2H])([2H])c1nnn(C)c1-c1cnc2c3cc(Cl)c(C(C)(C)O)cc3n([C@H](c3ccccc3)C3CCOCC3)c2c1 | 2.2 | 2 | 38 | 39 | 34 | 33 | 45 | 110 | 120 | 120 | 120 | 120 | 1.4 | 3

Stronger by IC50 [1], values ahead:

IC50 [1] [nM] | IC50 [2] [nM] | half-life [4] [min] | half-life [5] [min] | half-life [6] [min] | half-life [7] [min] | half-life [8] [min] | half-life [9] [min] | half-life [10] [min] | half-life [11] [min] | half-life [12] [min] | half-life [13] [min] | Ratio [14] | SMILES | IC50 [3] [nM]
1.2 | 0.8 | 59 | 43 | 25 | 37 | 29 |  |  |  |  |  | 6.1 | [2H]C([2H])([2H])c1nnn(C)c1-c1cnc2c3ccc(C(C)(C)O)cc3n([C@H](c3ccccc3)C3CCOCC3)c2c1 | 6
1 | 1 | 23 | 35 | 28 | 73 | 11 | 98 | 120 | 120 | 120 | 120 | > 35 | [2H]C([2H])([2H])c1nnn(C)c1-c1cnc2c3c(OC)cc(C(C)(C)O)cc3n([C@H](c3ccccc3)C3CCOCC3)c2c1 | 5
